Laboratory results as given in the SangsterLogP compilation.

Experiment: method code SF-AS, from Bernabe, T.; Forni, F.; Bellei, S.; Cameroni, R. (1980). Partition coefficients of a series of substituted benzoic acids. Atti Soc. Nat. Mat Modena, 111(1)63-72.
Conditions: pH 1.0

SMILES	logD
COc1cccc(C(=O)O)c1O	1.94
O=C(O)c1cc(Cl)ccc1[N+](=O)[O-]	2.13
Nc1c(Cl)cc(Cl)cc1C(=O)O	1.82
O=C(O)c1cc([N+](=O)[O-])c(Cl)c([N+](=O)[O-])c1	2.5
COc1ccc(C(=O)O)cc1OC	1.61
O=C(O)c1cc(I)ccc1O	2.63
O=C(O)c1ccc(O)c([N+](=O)[O-])c1	1.85
O=C(O)c1ccc(Cl)cc1[N+](=O)[O-]	2.08
COc1cc(OC)cc(C(=O)O)c1	2.19
O=C(O)c1cc([N+](=O)[O-])cc([N+](=O)[O-])c1O	1.71
Nc1cc([N+](=O)[O-])ccc1C(=O)O	1.91
O=C(O)c1ccc(O)c(Cl)c1	2.41
O=C(O)c1ccc([N+](=O)[O-])c(O)c1	1.98
Cc1cccc(C(=O)O)c1O	2.86
